Laboratory results taken from patent US11672788B2, “Histone deacetylase inhibitors for immunomodulation in tumor microenvironment” (GREAT NOVEL THERAPEUTICS BIOTECH & MEDICALS CORPORATION, priority 2020, dated 2023).
Entries after “also recorded” stand apart in the source; their conditions may differ.

How the values were obtained:
[1] = target: HDAC8 (Homo sapiens (Human), UniProt Q9BY41); experiment: HDACs 1-11 enzymatic inhibition by BPS Bioscience
Experimental: (§5) HDAC assay was performed according to standard Protocols (Fluorgenic HDACs 1-11 assay kit, BPS Bioscience™). […] After 0.5 h, assay developer was added to the samples and the absorbance was read at fluorogenic wavelength. The relative inhibition to HDACs 1, 2, 3, 4, 5, 6, 7, 8, 9, and 11 activities was determined in each sample. […] All of the compounds were dissolved in DMSO. The serial dilution of the compounds was first performed in 100% DMSO with the highest concentration at 1 mM. Each intermediate compound dilution (in 100% DMSO) would then get directly diluted 10× fold into assay buffer for an intermediate dilution of 10% DMSO in HDAC assay buffer and 5 μl of the dilution was added to a 50 μl reaction so that the final concentration of DMSO is 1% in all of the reactions. The enzymatic reactions for the HDAC enzymes were conducted in duplicate at 37° C. for 30 minutes in a 50 μl mixture containing HDAC assay buffer, 5 μg BSA, an HDAC substrate, a HDAC enzyme and a test compound. After enzymatic reactions, 50 μl of 2×HDAC Developer was added to each well for the HDAC enzymes and the plate was incubated at room temperature for an additional 15 minutes. Fluorescence intensity was measured at an excitation of 360 nm and an emission of 460 nm using a Tecan Infinite M1000 microplate reader. HDAC activity assays were performed in duplicate at each concentration. The fluorescent intensity data were analyzed using the computer software, Graphpad Prism. In the absence of the compound, the fluorescent intensity (Ft) in each data set was defined as 100% activity. In the absence of HDAC, the fluorescent intensity (Fb) in each data set was defined as 0% activity. The percent activity in the presence of each compound was calculated according to the following equation: % activity=(F−Fb)/(Ft−Fb), where F=the fluorescent intensity in the presence of the compound. […] The IC50 value was determined by the concentration causing a half-maximal percent activity.

[2] = test system: MDA-MB-231; experiment: In vitro cytotoxicity MTT assay; format: cell-based, human; settings: Homo sapiens, MDA-MB-231, 72 h, IC50 ± SD
Outline: (§1)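 Viability is determined by MTT after 72 h of treatment, using 2.4×10^4 seeded cells for SW48, NCI-N87 and MDA-MB-453 and 6×10^3 for MDA-MB-231.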

[3] = test system: M10; experiment: In vitro cytotoxicity MTT assay; format: cell-based, human; settings: Homo sapiens, M10, 72 h, IC50 ± SD
Outline: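 Cells were seeded in 96-well plates at 6×10^3 (MDA-MB-231) or 2.4×10^4 (MDA-MB-453, NCI-N87, SW48). Compound exposure lasted 72 h, after which viability was measured by MTT.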

[4] = test system: SW48; experiment: In vitro cytotoxicity MTT assay; format: cell-based, human; settings: Homo sapiens, SW48, 72 h, IC50 ± SD
Outline: as §1

[5] = test system: MDA-MB-453; experiment: In vitro cytotoxicity MTT assay; format: cell-based, human; settings: Homo sapiens, MDA-MB-453, 72 h, IC50 ± SD
Outline: as §1

[6] = target: HDAC4 (Homo sapiens (Human), UniProt P56524); experiment: HDACs 1-11 enzymatic inhibition by BPS Bioscience
Experimental: as §5

[7] = test system: M10 cells; experiment: Cell proliferation and morphology by phase-contrast light microscopy; format: cell-based, human; settings: M10, 12.5 μM
Description: (§2) (FIG. 3A) MDA-MB-231 cells, (FIG. 3B) SW48 cells, (FIG. 3C) M10 cells.

[8] = test system: SW48 cells; experiment: as above; format: cell-based, human; settings: SW48, 3.125 μM, 72 h
Description: as §2

[9] = test system: MDA-MB-231 cells; experiment: as above; format: cell-based, human; settings: MDA-MB-231, 12.5 μM, 72 h
Description: as §2

[10] = target: HDAC3 (Homo sapiens (Human), UniProt O15379); experiment: HDAC3 enzymatic kinetic assay; format: biochemical; settings: 2 μM; 20 min, 40 min and 60 min
Experimental: HDAC3 enzymatic kinetic assay was performed according to standard Protocols (Fluorgenic HDAC3 assay kit, BPS Bioscience™). […] After incubation, assay developer was added to the samples and the absorbance was read at fluorogenic wavelength. The relative inhibition to HDAC3 activity in each sample was determined.

[11] = test system: M10 cells; experiment: Cell apoptosis (sub-G1) by PI flow cytometry; format: cell-based, human; settings: M10, 12.5 μM, 72 h
Experimental: (§3) A PI/RNase staining assay (BD Bioscience™) was performed to reveal the presence of cell cycle arrest and apoptotic cells after treatment with GNTbm compounds, Chidamide and Entinostat. […] After treatment cells were harvested, fixed with 80% ethanol for 24 h, washed with 1×PBS and stained with PI/RNase for 15 min at room temperature. The cells were then analyzed using Flow Cytometer within 1 h.

[12] = test system: SW48 cells; experiment: Cell apoptosis (sub-G1) by PI flow cytometry; format: cell-based, human; settings: SW48, 6.25 μM, 72 h
Experimental: as §3

[13] = test system: MDA-MB-231 cells; experiment: Cell apoptosis (sub-G1) by PI flow cytometry; format: cell-based, human; settings: MDA-MB-231, 6.25 μM, 72 h
Experimental: as §3

[14] = test system: SK-BR-3; experiment: In vitro cytotoxicity MTT assay; format: cell-based; settings: Homo sapiens, 72 h, IC50 ± SD
Outline: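 Plated 96-well (MDA-MB-231 6×10^3; others 2.4×10^4); treated 72 h; MTT.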

[15] = test system: NCI-N87; experiment: In vitro cytotoxicity MTT assay; format: cell-based; settings: Homo sapiens, 72 h, IC50 ± SD
Outline: as §1

[16] = target: HDAC6 (Homo sapiens (Human), UniProt Q9UBN7); experiment: HDACs 1-11 enzymatic inhibition by BPS Bioscience
Experimental: as §5

[17] = test system: histone H3 acetylation (AcH3) in MDA-MB-231 cells; experiment: Western blot of histone H3 acetylation; format: cell-based, human; settings: MDA-MB-231, 1.0 μM
Outline: (§4)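 MDA-MB-231 and SW48 cells in L-15 with 10% FCS were treated at indicated doses for 24 h or over a time course. RIPA lysates were immunoblotted for acetylated histone H3 with β-actin as loading control, using ECL detection.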

[18] = test system: histone H3 acetylation (AcH3) in SW48 cells; experiment: Western blot of histone H3 acetylation; format: cell-based, human; settings: SW48, 1.0 μM, 2-72 h
Outline: as §4

[19] = target: HDAC2 (Homo sapiens (Human), UniProt Q92769); experiment: HDACs 1-11 enzymatic inhibition by BPS Bioscience
Experimental: (§6) HDAC assay was performed according to standard Protocols (Fluorgenic HDACs 1-11 assay kit, BPS Bioscience™). […] After 0.5 h, assay developer was added to the samples and the absorbance was read at fluorogenic wavelength. The relative inhibition to HDACs 1, 2, 3, 4, 5, 6, 7, 8, 9, and 11 activities was determined in each sample. […] All of the compounds were dissolved in DMSO. The serial dilution of the compounds was first performed in 100% DMSO with the highest concentration at 1 mM. Each intermediate compound dilution (in 100% DMSO) would then get directly diluted 10× fold into assay buffer for an intermediate dilution of 10% DMSO in HDAC assay buffer and 5 μl of the dilution was added to a 50 μl reaction so that the final concentration of DMSO is 1% in all of the reactions. […] Fluorescence intensity was measured at an excitation of 360 nm and an emission of 460 nm using a Tecan Infinite M1000 microplate reader. […] The fluorescent intensity data were analyzed using the computer software, Graphpad Prism. […] The percent activity in the presence of each compound was calculated according to the following equation: % activity=(F−Fb)/(Ft−Fb), where F=the fluorescent intensity in the presence of the compound. […] The IC50 value was determined by the concentration causing a half-maximal percent activity.

[20] = target: HDAC1 (Homo sapiens (Human), UniProt Q13547); experiment: HDACs 1-11 enzymatic inhibition by BPS Bioscience
Experimental: as §6

[21] = target: HDAC11 (Homo sapiens (Human), UniProt Q96DB2); experiment: HDACs 1-11 enzymatic inhibition by BPS Bioscience
Experimental: HDAC assay was performed according to standard Protocols (Fluorgenic HDACs 1-11 assay kit, BPS Bioscience™). […] After 0.5 h, assay developer was added to the samples and the absorbance was read at fluorogenic wavelength. The relative inhibition to HDACs 1, 2, 3, 4, 5, 6, 7, 8, 9, and 11 activities was determined in each sample. […] All of the compounds were dissolved in DMSO. The serial dilution of the compounds was first performed in 100% DMSO with the highest concentration at 1 mM. Each intermediate compound dilution (in 100% DMSO) would then get directly diluted 10× fold into assay buffer for an intermediate dilution of 10% DMSO in HDAC assay buffer and 5 μl of the dilution was added to a 50 μl reaction so that the final concentration of DMSO is 1% in all of the reactions. The enzymatic reactions for the HDAC enzymes were conducted in duplicate at 37° C. for 30 minutes in a 50 μl mixture containing HDAC assay buffer, 5 μg BSA, an HDAC substrate, a HDAC enzyme and a test compound. After enzymatic reactions, 50 μl of 2×HDAC Developer was added to each well for the HDAC enzymes and the plate was incubated at room temperature for an additional 15 minutes. Fluorescence intensity was measured at an excitation of 360 nm and an emission of 460 nm using a Tecan Infinite M1000 microplate reader. HDAC activity assays were performed in duplicate at each concentration. The fluorescent intensity data were analyzed using the computer software, Graphpad Prism. In the absence of the compound, the fluorescent intensity (Ft) in each data set was defined as 100% activity. In the absence of HDAC, the fluorescent intensity (Fb) in each data set was defined as 0% activity. The percent activity in the presence of each compound was calculated according to the following equation: % activity=(F−Fb)/(Ft−Fb), where F=the fluorescent intensity in the presence of the compound. The values of % activity versus a series of compound concentrations were then plotted using non-linear regression analysis of Sigmoidal dose-response curve generated with the equation Y=B+(T−B)/1+10((Log EC50−X)×Hill Slope), where Y=percent activity, B=minimum percent activity, T=maximum percent activity, X=logarithm of compound and Hill Slope=slope factor or Hill coefficient. The IC50 value was determined by the concentration causing a half-maximal percent activity.

[22] = target: HDAC5 (Homo sapiens (Human), UniProt Q9UQL6); experiment: HDACs 1-11 enzymatic inhibition by BPS Bioscience
HDAC5, sequence (Q9UQL6 whole entry): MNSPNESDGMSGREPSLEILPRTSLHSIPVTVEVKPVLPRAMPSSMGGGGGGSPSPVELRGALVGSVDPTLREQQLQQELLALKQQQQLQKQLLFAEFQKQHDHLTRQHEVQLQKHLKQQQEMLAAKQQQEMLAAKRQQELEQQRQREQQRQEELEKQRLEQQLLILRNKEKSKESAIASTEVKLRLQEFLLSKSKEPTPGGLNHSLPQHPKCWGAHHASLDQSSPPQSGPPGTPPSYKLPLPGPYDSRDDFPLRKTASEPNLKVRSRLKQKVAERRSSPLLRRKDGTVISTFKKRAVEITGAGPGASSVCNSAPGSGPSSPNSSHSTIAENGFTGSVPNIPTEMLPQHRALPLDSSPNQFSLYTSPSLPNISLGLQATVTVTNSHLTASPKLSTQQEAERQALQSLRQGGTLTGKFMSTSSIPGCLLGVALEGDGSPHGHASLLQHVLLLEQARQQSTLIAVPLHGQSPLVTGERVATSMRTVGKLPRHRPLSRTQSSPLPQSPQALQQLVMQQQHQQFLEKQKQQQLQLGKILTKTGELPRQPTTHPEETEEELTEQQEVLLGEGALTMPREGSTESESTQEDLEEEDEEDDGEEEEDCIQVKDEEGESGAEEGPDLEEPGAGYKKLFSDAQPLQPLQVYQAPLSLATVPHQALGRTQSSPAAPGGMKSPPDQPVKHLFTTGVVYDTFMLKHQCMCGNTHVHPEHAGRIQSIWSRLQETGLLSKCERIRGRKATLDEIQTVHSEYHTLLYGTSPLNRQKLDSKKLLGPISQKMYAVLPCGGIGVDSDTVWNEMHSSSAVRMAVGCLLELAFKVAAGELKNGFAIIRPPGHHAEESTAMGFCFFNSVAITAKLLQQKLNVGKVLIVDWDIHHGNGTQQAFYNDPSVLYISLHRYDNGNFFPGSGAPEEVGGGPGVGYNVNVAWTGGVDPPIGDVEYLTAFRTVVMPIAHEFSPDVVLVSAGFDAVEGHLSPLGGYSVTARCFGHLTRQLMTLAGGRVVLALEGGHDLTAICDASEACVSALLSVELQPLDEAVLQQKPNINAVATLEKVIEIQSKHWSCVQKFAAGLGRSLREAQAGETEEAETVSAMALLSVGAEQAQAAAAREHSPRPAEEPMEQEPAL
Experimental: as §5

HDAC6, sequence (Q9UBN7 whole entry): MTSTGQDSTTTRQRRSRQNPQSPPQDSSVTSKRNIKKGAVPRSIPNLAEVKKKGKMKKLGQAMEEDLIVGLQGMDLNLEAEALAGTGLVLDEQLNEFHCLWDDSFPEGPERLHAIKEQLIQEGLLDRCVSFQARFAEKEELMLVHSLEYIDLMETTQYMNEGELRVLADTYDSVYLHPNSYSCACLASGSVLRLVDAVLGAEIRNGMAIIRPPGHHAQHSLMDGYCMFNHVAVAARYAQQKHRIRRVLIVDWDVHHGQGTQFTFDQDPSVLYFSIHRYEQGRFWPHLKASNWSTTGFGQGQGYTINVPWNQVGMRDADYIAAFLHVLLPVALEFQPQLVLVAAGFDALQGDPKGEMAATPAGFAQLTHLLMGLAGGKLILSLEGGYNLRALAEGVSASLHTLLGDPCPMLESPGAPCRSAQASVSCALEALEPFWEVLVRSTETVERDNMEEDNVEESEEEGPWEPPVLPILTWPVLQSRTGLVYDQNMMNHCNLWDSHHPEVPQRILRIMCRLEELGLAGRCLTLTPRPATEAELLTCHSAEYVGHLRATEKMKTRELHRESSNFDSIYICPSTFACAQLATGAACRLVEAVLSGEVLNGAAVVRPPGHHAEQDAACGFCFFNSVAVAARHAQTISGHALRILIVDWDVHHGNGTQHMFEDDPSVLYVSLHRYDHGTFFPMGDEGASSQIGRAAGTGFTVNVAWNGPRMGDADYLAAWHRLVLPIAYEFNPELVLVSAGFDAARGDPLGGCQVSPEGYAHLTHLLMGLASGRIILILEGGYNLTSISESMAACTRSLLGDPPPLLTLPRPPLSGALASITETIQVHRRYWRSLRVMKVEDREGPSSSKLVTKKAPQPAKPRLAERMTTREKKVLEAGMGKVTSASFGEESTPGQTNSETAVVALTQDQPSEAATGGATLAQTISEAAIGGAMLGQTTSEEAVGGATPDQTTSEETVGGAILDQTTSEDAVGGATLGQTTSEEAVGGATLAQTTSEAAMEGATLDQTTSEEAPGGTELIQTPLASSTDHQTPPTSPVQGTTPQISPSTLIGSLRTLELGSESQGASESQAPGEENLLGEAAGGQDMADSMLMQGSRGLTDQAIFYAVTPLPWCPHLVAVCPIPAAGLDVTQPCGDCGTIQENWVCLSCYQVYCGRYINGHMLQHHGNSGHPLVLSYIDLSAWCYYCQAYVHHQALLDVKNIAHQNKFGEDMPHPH
HDAC4, sequence (P56524 whole entry): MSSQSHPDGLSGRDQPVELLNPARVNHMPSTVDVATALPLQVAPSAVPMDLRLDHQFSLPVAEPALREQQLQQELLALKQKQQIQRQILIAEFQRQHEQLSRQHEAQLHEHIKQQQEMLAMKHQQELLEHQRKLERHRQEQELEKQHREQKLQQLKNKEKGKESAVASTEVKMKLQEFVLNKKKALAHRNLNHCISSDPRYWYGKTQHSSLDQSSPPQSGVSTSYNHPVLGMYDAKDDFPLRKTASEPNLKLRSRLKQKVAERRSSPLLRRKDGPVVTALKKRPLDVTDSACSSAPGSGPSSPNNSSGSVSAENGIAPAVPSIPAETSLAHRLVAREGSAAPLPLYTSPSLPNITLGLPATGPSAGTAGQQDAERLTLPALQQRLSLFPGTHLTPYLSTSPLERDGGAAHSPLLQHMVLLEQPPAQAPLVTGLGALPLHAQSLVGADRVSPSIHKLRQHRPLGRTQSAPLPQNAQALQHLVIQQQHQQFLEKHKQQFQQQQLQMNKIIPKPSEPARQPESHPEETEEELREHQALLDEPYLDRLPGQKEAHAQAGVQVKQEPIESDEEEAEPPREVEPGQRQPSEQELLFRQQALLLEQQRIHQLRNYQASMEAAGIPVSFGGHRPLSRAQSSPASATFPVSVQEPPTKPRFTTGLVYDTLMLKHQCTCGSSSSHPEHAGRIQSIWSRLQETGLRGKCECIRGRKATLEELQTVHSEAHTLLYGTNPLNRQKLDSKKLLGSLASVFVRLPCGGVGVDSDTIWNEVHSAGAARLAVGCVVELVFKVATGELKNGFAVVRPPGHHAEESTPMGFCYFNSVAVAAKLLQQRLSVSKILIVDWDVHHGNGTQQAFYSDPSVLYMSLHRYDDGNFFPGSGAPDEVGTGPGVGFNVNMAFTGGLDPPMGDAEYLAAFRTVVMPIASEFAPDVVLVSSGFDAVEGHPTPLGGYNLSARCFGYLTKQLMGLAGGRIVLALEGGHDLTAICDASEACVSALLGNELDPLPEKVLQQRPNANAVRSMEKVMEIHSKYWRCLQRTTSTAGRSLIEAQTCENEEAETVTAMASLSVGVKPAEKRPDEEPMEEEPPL
HDAC11, sequence (Q96DB2 whole entry): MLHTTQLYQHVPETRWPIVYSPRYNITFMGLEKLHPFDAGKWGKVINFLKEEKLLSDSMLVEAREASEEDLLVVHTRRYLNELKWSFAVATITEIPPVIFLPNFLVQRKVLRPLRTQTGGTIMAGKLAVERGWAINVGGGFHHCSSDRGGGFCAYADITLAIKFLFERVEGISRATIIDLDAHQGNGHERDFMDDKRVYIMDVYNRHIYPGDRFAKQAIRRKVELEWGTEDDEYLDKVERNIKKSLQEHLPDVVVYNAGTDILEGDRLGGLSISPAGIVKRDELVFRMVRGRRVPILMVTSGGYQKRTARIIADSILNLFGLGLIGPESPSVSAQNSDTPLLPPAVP
HDAC8, sequence (Q9BY41 whole entry): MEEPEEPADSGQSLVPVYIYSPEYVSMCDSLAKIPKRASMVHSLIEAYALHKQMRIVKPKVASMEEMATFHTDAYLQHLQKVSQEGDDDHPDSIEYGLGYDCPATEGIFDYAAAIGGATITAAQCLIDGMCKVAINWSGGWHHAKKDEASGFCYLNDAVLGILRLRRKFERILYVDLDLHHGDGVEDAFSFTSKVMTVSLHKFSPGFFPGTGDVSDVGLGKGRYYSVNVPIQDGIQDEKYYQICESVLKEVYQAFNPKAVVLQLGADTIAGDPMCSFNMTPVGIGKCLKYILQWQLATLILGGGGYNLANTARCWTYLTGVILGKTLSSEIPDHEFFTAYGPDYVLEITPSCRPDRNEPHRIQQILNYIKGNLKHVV
HDAC3, sequence (O15379 whole entry): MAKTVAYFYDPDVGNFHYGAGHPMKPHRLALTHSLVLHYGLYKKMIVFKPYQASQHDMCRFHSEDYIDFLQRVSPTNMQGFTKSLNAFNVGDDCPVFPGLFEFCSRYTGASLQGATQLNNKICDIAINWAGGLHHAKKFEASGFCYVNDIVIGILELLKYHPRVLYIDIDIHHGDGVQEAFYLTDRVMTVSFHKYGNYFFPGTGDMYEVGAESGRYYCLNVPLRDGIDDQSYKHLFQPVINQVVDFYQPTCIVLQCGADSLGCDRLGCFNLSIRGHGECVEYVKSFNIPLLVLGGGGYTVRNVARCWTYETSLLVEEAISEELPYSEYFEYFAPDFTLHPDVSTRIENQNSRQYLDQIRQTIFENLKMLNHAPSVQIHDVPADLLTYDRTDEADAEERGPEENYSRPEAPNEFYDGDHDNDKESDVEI
HDAC3, sequence (Q9Y618 395-489 partner): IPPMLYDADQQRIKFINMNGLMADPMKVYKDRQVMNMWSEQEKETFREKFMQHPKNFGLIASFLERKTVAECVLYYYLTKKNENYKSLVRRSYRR

- IC50 [1]: > 10 µM
- IC50 [6]: > 10 µM
- IC50 [16]: > 10 µM
- IC50 [19]: 0.91 µM
- IC50 [20]: 0.39 µM
- IC50 [21]: > 10 µM
- IC50 [22]: > 10 µM
Structure (SMILES): Cc1ccc(/C=C/CC(=O)Nc2ccc(C(=O)Nc3ccc(F)cc3N)nc2)cn1 [GNTbm-02, 5-((E)-4-(6-methylpyridin-3-yl)but-3-enamido)-N-(2-amino-4-fluorophenyl)pyridine-2-carboxamide]
- HDAC8 Inhibition at 10 μM ([1]; 10 μM): not inhibited; also recorded: No Inhibition at 10 μM
- IC50 [2]: 13.5 ± 1.78 µM
- IC50 [3]: 4.31 ± 0.16 µM
- IC50 [4]: 2.51 ± 0.11 µM
- IC50 [5]: 1.69 ± 0.008 µM
- HDAC4 Inhibition at 10 μM ([6]; 10 μM): not inhibited; also recorded: No Inhibition at 10 μM
- Inhibition of cell proliferation [7]: significantly inhibited cell proliferation
- Inhibition of cell proliferation [8]: inhibitory effect was more obvious for SW48 cells
- Inhibition of cell proliferation [9]: significantly inhibiting cell proliferation
- Inhibition of HDAC 3 enzyme activities (kinetics) [10]: stronger inhibition of HDAC 3 enzyme activities than Entinostat; also recorded: stronger inhibition of HDAC 3 enzyme activities than GNTbm-01
- Induction of apoptosis (sub-G1 phase) [11]: significantly induced apoptosis in M10 cells
- Induction of apoptosis (sub-G1 phase) [12]: significantly induced apoptosis
- Induction of apoptosis (sub-G1 phase) [13]: significantly induced apoptosis
- IC50 [14]: 2 ± 0.015 µM
- IC50 [15]: 4.01 ± 0.49 µM
- HDAC6 Inhibition at 10 μM ([16]; 10 μM): not inhibited; also recorded: No Inhibition at 10 μM
- Histone H3 acetylation, time course ([17]; 2-72 h): potently induced histone H3 acetylation in MDA-MB-231 cell after 6 h treatment
- Level of histone H3 acetylation ([17]; 24 h): significantly increased the level of histone H3 acetylation
- Histone H3 acetylation, time course [18]: potently induced histone H3 acetylation level in SW48 cells after 6 h treatment
- HDAC11 Inhibition at 10 μM ([21]; 10 μM): not inhibited; also recorded: No Inhibition at 10 μM
- HDAC5 Inhibition at 10 μM ([22]; 10 μM): not inhibited; also recorded: No Inhibition at 10 μM
